Assay results published in ChEMBL document CHEMBL2169761, “Exploring the interactions of unsaturated glucuronides with influenza virus sialidase” (J Med Chem, 2012).

assay: Inhibition of Influenza A virus sialidase N2

SMILES | IC50 [nM] | Ki [nM]
CCC(CC)O[C@@H]1OC(C(=O)O)=C[C@H](N)[C@H]1NC(C)=O | 770 | –
CCC(CC)O[C@@H]1C=C(C(=O)O)C[C@H](O)[C@H]1NC(C)=O | 15 | –
C=C[C@H]1CC(C(=O)O)=C[C@@H](OC(C)C)[C@@H]1NC(C)=O | – | 45
C/C=C\[C@@H]1C[C@H](C(=O)O)N[C@H]1[C@@H](NC(C)=O)[C@](C)(CCC)OC | – | 0.2
CC(=O)N[C@H]1[C@H]([C@H](O)[C@H](O)CO)OC(C(=O)O)=C[C@@H]1O [NEU5AC2EN] | 1700 | –
CC(=O)N[C@H]1[C@H]([C@H](O)[C@H](O)CO)OC(C(=O)O)=C[C@@H]1NC(=N)N [ZANAMIVIR] | 5 | –

assay: Inhibition of Influenza A virus sialidase N2 by fluorometric assay

SMILES | IC50 [nM]
CCC(CC)O[C@@H]1OC(C(=O)O)=C[C@H](OC(C)=O)[C@H]1NC(C)=O | 5390
C=CCO[C@H]1C=C(C(=O)O)O[C@@H](OC(CC)CC)[C@@H]1NC(C)=O | 212000
CCC(CC)O[C@@H]1OC(C(=O)O)=C[C@H](OC)[C@H]1NC(C)=O | 1450
CCO[C@H]1C=C(C(=O)O)O[C@@H](OC(CC)CC)[C@@H]1NC(C)=O | 28000
CCC(CC)O[C@@H]1OC(C(=O)O)=C[C@H](O)[C@H]1NC(C)=O | 320
CCO[C@H]1C=C(C(=O)O)O[C@@H]([C@H](O)[C@H](O)CO)[C@@H]1NC(C)=O | 479000
CC(=O)N[C@H]1[C@H]([C@H](O)[C@H](O)CO)OC(C(=O)O)=C[C@@H]1N | 680
CC(=O)N[C@H]1[C@H]([C@H](O)[C@H](O)CO)OC(C(=O)O)=C[C@@H]1O [NEU5AC2EN] | 10500
CC(=O)N[C@H]1[C@H]([C@H](O)[C@H](O)CO)OC(C(=O)O)=C[C@@H]1NC(=N)N [ZANAMIVIR] | 12
